# Data reported in paper PMC8591604, “Targeting Oncogenic Src Homology 2 Domain-Containing Phosphatase 2 (SHP2) by Inhibiting Its Protein–Protein Interactions” (Journal of Medicinal Chemistry, 2021).
# Read-outs that look alike come from different tables or passages of the source. Where a SMILES comes first, the peptide text is derived from it. [ ]: non-standard residue; d: D form. The star is where a group is joined. 5FAM = O=C1OC2(c3ccc(O)cc3Oc3cc(O)ccc32)c2ccc(C(=O)*)cc21; pY = N[C@@H](Cc1ccc(OP(=O)(O)O)cc1)C(=O)O
# Key:
# [1] = target: T1, N-SH2 domain of SHP2 (Homo sapiens, UniProt Q06124); experiment: Fluorescence anisotropy direct binding assay; settings: for standard free energy of binding: assuming a 1 M standard state; for Kd: direct titration of labeled peptide
# T1 construct: constructs of the N-SH2 (residues 2–111), C-SH2 (residues 109–217), and PTP (residues 212–528) domains; made in house; host or cells: Escherichia coli (DE3) Rosetta2
# T1 sequence (Q06124 2-111): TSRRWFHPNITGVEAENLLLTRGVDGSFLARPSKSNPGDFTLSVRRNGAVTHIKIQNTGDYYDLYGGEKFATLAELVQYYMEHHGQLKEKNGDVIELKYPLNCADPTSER
# Experimental: Anisotropy measurements were carried out using a Horiba Fluoromax 4 spectrofluorimeter. For the binding assays, the requested peptide amount (1 or 0.1 nM) was diluted in a buffer (10 mM HEPES, 150 mM NaCl, 1 mM EDTA, and 1 mM TCEP, fluorescence buffer henceforth) and its anisotropy signal was recorded. The peptide was then titrated with increasing protein amounts, until the anisotropy signal reached a plateau at its maximum value, or up to a protein concentration at which protein aggregation and consequent light scattering affected the anisotropy values (usually >1 μM). The measurements of CF-labeled peptides were carried out using an excitation wavelength of 470 nm and collecting the anisotropy values at an emission wavelength of 520 nm. A 495 nm emission filter was used. […] Between two and six replicates were performed (the specific numbers are indicated in the figures and in the table reporting the binding experiments).
# Analysis of binding curves
# fractions correspond to the population of the two states.
# 𝑟 = 𝑥𝐵𝑟𝑚𝑎𝑥 + (1 − 𝑥𝐵)𝑟0 (1)
# Here, r, r0 and rmax are the anisotropy values at a given protein concentration, in the absence of protein and when the peptide is completely bound, respectively, and 𝑥𝐵 is the molar fraction of bound peptide. This last quantity, therefore, can be derived from the anisotropy values as follows:
# Kd values were obtained fitting the data with the following equation, 2 which avoids the need for the commonly used (but often unjustified) approximation of the concentration of unbound protein with
# Here, [P]T and [L]T are the total protein and ligand concentrations. When allowed by the experimental conditions (i.e. when [𝐿]𝑇 ≪ 𝐾𝑑), this equation was simplified by assuming [𝑃]𝑇 ≅
# (§2) The affinity of unlabeled peptides was determined by competition experiments, in which a sample with fixed total protein and fluorescently labeled peptide concentrations ([ 𝑃]T and [𝐿]T) was titrated with the unlabeled peptide, causing displacement of the flu orescent peptide and a decrease in
# half of the bound fluorescent analog) was determined, interpolating the displacement curve using a phenomenological Hill equation:3
# where [I]T is the total concentration of the peptide causing the displacement, and rfin is the anisotropy corresponding to total displacement, while in this case r0 is the starting anisotropy, in the absence of displacing peptide.
# Successively, the dissociation constant of the unlabeled peptide (𝐾𝑑𝑢) was calculated from the know values of EC50, Kd, [𝑃]𝑇 and [𝐿]𝑇, as described here below.
# In the system where protein (P), ligand (L ) and a competitive inhibitor (I) are present, both L and I can form complexes with P (PL and PI, respectively). The following dissociation constants can be defined for the two binding equilibria:
# [2] = Peptide stability in DMEM; format: in vitro ADME; settings: 3 days; data not shown
# Experimental: (§1) The peptides were dissolved in DMSO (5 mg/mL). In Eppendorf tubes, 1 mL of HEPES buffer (25 mM, pH 7.6) was temperature equilibrated at 37 °C before the addition of 250 μL of human serum and 20 μL of a peptide solution; the reaction was followed for 24 h. At fixed intervals, 100 μL of the solution was withdrawn and added to 200 μL of absolute ethanol. These samples were kept on ice for 15 min and then centrifuged at 13000 rpm for 5 min; the supernatant solutions were analyzed by HPLC and HPLC-MS with a 20% to 60% B gradient in 20 min to follow the reaction. In parallel, samples containing peptide, buffer, and ethanol only were analyzed. A degradation resistance test was also conducted in DMEM (Dulbecco’s modified Eagle’s medium). The experimental conditions are similar to those described above; the reaction was followed for 72 h. The enzymatic degradation resistance tests were followed by HPLC using a 5% to 50% B gradient over 20 min.
# [3] = target: T1, N-SH2 domain of SHP2; experiment: Fluorescence anisotropy displacement assay; format: binding; settings: 1.0 nM CF-P9, 40 nM N-SH2; compared with P9
# Experimental: The displacement assays were carried out with the same experimental settings. In this case, the labeled peptide–protein complex was titrated with increasing amounts of the unlabeled peptide, following the decrease in anisotropy. Measurements were carried out at the same CF-peptide concentration used for the corresponding binding experiments. With regard to the protein concentration, a compromise between two requirements is needed.[90] […] Between three and five replicates were performed (the specific numbers are indicated in the figures reporting the binding experiments).
# Here, [P]T and [L]T are the total protein and ligand concentrations. […]
# as §2
# half of the bound fluorescent analog) was determined, interpolating the displacement curve using a phenomenological Hill equation:3 […]
# Successively, the dissociation constant of the unlabeled peptide (𝐾𝑑𝑢) was calculated from the know values of EC50, Kd, [𝑃]𝑇 and [𝐿]𝑇, as described here below. […]
# In this way, 𝐾𝑑𝑢 is expressed as a function of the known quantities EC50, Kd, [𝑃]T and [𝐿]T, without
# [4] = target: T2, SHP2Δ104 (Homo sapiens, UniProt Q06124); experiment: Dephosphorylation of phosphopeptides, malachite green phosphatase assay; format: biochemical; settings: 100 μM phosphopeptide
# T2 construct: the isolated PTP domain preceded by the C-SH2 domain (residues 105–528); made in house; host or cells: Escherichia coli (DE3) Rosetta2
# T2 sequence (Q06124 105-528): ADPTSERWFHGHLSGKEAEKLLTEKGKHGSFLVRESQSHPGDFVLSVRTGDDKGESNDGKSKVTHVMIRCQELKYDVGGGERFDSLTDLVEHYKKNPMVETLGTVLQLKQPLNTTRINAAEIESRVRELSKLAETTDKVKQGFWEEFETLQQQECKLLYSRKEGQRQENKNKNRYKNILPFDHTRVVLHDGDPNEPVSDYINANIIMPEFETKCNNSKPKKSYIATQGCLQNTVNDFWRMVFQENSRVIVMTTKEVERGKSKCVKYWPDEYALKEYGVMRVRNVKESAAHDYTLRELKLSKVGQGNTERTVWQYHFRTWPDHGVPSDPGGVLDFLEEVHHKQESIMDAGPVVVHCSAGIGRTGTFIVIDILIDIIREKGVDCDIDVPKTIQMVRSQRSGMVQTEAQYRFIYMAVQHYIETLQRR
# Experimental: The ability of SHP2 to dephosphorylate the phosphopeptides was evaluated through a malachite green phosphatase assay (PTP assay kit 1, Millipore). The BTAM peptide and the following monophosphorylated peptides derived from known SHP2 substrates were used for comparison: DKQVE-pY-LDLDL (GAB1Y657), EEENI-pY-SVPHD (p190A/RhoGAPY1105), and VDADE-pY-LIPQQ (EGFRY1016) (Primm). SHP2Δ104 (2.4 pmol) was incubated with each phosphopeptide at 100 μM (total volume of 25 μL) for different times. The reaction was stopped by adding 100 μL of a malachite green solution. After 15 min, the absorbance was read at 655 nm, using a microplate reader, and compared with a phosphate standard curve to determine the release of phosphate. Data obtained in the linear region of the curve were normalized to the reaction time (1 min). Each experiment was performed in duplicate.
# [5] = Peptide stability in human serum (HPLC); format: in vitro ADME; settings: in 3 h, positive control
# Experimental: as §1
# [6] = target: N-SH2 domain; set-up: method as in ref 19 (a number printed in a supplementary file, which may have a reference list of its own: not looked up in the article's list); settings: Isothermal titration calorimetry; cited from earlier work
# [7] = target: N-SH2 domain; set-up: method as in ref 48 (a number printed in a supplementary file, which may have a reference list of its own: not looked up in the article's list); settings: Radioactively labeled peptide; cited from earlier work
compound,measurement,setting,value
"CC[C@H](C)[C@H](NC(=O)[C@H](Cc1ccc(OP(=O)(O)O)cc1)NC(=O)[C@H](CC(N)=O)NC(=O)[C@H](CC(C)C)NC(=O)CNC(=O)c1ccc2c(c1)C(=O)OC21c2ccc(O)cc2Oc2cc(O)ccc21)C(=O)N[C@@H](CC(=O)O)C(=O)N[C@@H](CC(C)C)C(=O)N[C@@H](CC(=O)O)C(=O)N[C@@H](CC(C)C)C(N)=O [CF-P9, CF-GLN-pY -IDLDL] (5FAM-GLN[pY]IDLDL-NH2)",standard free energy of binding,[1],-9.94 ± 0.024 kcal/mol
same,Kd,[1],53 ± 2 nM
"CC[C@H](C)[C@H](NC(=O)[C@H](Cc1ccc(O)cc1)NC(=O)[C@H](CC(N)=O)NC(=O)[C@H](CC(C)C)NC(=O)CNC(=O)c1ccc2c(c1)C(=O)OC21c2ccc(O)cc2Oc2cc(O)ccc21)C(=O)N[C@@H](CC(=O)O)C(=O)N[C@@H](CC(C)C)C(=O)N[C@@H](CC(=O)O)C(=O)N[C@@H](CC(C)C)C(N)=O [CF-P9Y0, CF-GLN- Y -IDLDL] (5FAM-GLNYIDLDL-NH2)","affinity, times lower than the phosphorylated peptide",[1]; CF-P9Y0 vs CF-P9,approximately 100 times
same,standard free energy of binding,[1],-7.07 ± 0.048 kcal/mol
same,Kd,[1],6600 ± 600 nM
"CC[C@H](C)[C@H](NC(=O)[C@H](Cc1ccc(C(F)(F)P(=O)(O)O)cc1)NC(=O)[C@H](CC(N)=O)NC(=O)[C@H](CC(C)C)NC(=O)CNC(C)=O)C(=O)N[C@@H](CC(=O)O)C(=O)N[C@@H](CC(C)C)C(=O)N[C@@H](CC(=O)O)C(=O)N[C@@H](Cc1c[nH]c2ccccc12)C(N)=O [OP, GLN- F2Pmp-IDLDW]",stability in DMEM,[2],stable
"CC[C@H](C)[C@H](NC(=O)[C@H](Cc1ccc(OP(=O)(O)O)cc1)NC(=O)[C@H](CC(N)=O)NC(=O)[C@H](CC(C)C)NC(C)=O)C(=O)N[C@@H](CC(=O)O)C(=O)N[C@@H](CC(C)C)C(=O)N[C@@H](CC(=O)O)C(=O)N[C@@H](CC(C)C)C(N)=O [P8, LN-pY -IDLDL] (Ac-LN[pY]IDLDL-NH2)",effect of shortening the sequence on affinity (displacement curves),[3],No significant loss of affinity
same,dephosphorylation by SHP2Δ104,[4],dephosphorylation was indeed observed
"CC[C@H](C)[C@H](NC(=O)[C@H](Cc1ccc(OP(=O)(O)O)cc1)NC(=O)[C@H](CC(N)=O)NC(=O)[C@H](CC(C)C)NC(C)=O)C(=O)N[C@@H](CC(=O)O)C(=O)N[C@@H](CC(C)C)C(=O)N[C@@H](CC(=O)O)C(=O)N[C@@H](Cc1c[nH]c2ccccc12)C(N)=O [P8W5, LN-pY -IDLDW]",dephosphorylation by SHP2Δ104,[4],dephosphorylation was indeed observed
CC[C@H](C)[C@H](NC(=O)[C@H](C)NC(=O)[C@H](CCCCN)NC(=O)CNC(=O)[C@H](Cc1ccc(O)cc1)NC(=O)[C@H](Cc1ccc(O)cc1)NC(=O)[C@H](CCCCN)NC(=O)[C@H](Cc1ccccc1)NC(=O)[C@@H](N)Cc1c[nH]c2ccccc12)C(=O)N[C@@H](Cc1ccc(O)cc1)C(=O)O [XP] (H-WFKYYGKAIY-OH),degradation in human serum,[5],totally degraded
N-pY -IDLDL [P7],effect of shortening the sequence on affinity (displacement curves),[3],drastic perturbation of the complex stability
SLN-pY-IDLDLVKD [IRS-1 pY1172],Kd,[6],51 nM
same,Kd,[7],1000 to 10000 nM
